Results reported in BindingDB's records for patent US20250059196 (Shanghai Hansoh Biomedical, 2025).
pIC50: −log10 of the molar value.

Target: T1, Mucosa-associated lymphoid tissue lymphoma translocation protein 1 (Homo sapiens, UniProt Q9UDY8)
T1 sequence (Q9UDY8 whole entry): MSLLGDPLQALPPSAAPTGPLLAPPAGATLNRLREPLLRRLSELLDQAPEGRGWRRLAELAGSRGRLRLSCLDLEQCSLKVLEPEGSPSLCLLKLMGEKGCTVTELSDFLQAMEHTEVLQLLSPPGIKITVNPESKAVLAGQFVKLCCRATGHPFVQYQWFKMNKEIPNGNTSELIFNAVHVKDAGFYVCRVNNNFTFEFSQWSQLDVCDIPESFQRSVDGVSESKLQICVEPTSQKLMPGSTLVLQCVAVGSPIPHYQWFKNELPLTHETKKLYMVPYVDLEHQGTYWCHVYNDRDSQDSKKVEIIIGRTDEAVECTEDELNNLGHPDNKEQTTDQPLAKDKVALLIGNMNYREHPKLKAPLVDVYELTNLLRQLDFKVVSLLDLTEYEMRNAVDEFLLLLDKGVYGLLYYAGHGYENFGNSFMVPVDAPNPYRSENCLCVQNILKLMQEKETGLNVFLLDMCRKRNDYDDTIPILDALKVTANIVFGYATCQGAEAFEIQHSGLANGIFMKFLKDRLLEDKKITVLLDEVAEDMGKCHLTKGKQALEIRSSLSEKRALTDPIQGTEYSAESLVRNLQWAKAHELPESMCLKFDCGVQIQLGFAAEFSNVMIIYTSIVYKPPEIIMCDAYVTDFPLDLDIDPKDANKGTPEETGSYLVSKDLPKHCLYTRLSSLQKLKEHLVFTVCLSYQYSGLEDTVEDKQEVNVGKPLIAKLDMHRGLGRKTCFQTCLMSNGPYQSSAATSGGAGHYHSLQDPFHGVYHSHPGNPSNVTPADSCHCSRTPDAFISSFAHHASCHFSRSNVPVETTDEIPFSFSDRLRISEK
Test: MALT1 Enzyme Activity Assay
Procedure: The compound and the enzyme were pre-incubated at room temperature for 50 min. The substrate was then added and the reaction was carried out for 4 h.

Row | Structure (SMILES) | pIC50
1 | O=C(Nc1ccc(-n2cccn2)c(C(F)(F)F)c1)c1cnn(-c2ccc3c4c(cccc24)C(=O)N3)c1C(F)(F)F [US20250059196, Example 51] | 7.33
2 | O=C(Nc1cnc(-n2nccn2)c(C(F)(F)F)c1)c1cnn(-c2cnc3c4c(cccc24)C(=O)N3)c1C1CC1 [US20250059196, Example 78] | 7.46
3 | O=C(Nc1cnc(-n2nccn2)c(C(F)(F)F)c1)c1cnn(-c2ncc3c4c(cccc24)C(=O)N3)c1C(F)(F)F [US20250059196, Example 87] | 7.08
4 | O=C(Nc1cnc(-c2ncco2)c(C(F)(F)F)c1)c1cnn(-c2ccc3c4c(cccc24)C(=O)N3)c1C(F)(F)F [US20250059196, Example 34] | 7.49
5 | Cc1nc(-c2ncc(NC(=O)c3cnn(-c4ccc5c6c(cccc46)C(=O)N5)c3C(F)(F)F)cc2C(F)(F)F)oc1C [US20250059196, Example 35] | 7.23
6 | O=C(Nc1ccc(-n2nccn2)c(Cl)c1)c1cnn(-c2cnc3c4c(cccc24)C(=O)N3)c1C(F)(F)F [US20250059196, Example 75] | 7.62
7 | O=C(Nc1cnc(-n2cccn2)c(C(F)(F)F)c1)c1cnn(-c2ccc3c4c(cccc24)C(=O)N3)c1C(F)(F)F [US20250059196, Example 31] | 7.40
8 | CS(C)(=O)=Nc1ncc(NC(=O)c2cnn(-c3ccc4c5c(cccc35)C(=O)N4)c2C(F)(F)F)cc1C(F)(F)F [US20250059196, Example 30] | 6.85
9 | O=C(Nc1ccc(-n2nccn2)c(C(F)(F)F)c1)c1cnn(-c2cnc3c4c(cccc24)C(=O)N3)c1C(F)(F)F [US20250059196, Example 73] | 6.72
10 | O=C(Nc1cnc(N2CCC2)c(Cl)c1)c1cnn(-c2ccc3c4c(cccc24)C(=O)N3)c1C(F)(F)F [US20250059196, Example 48] | 6.85
11 | CCc1cc(-n2ncc(C(=O)Nc3ccnc(C(F)(F)F)c3)c2C(F)(F)F)c2cccc3c2c1NC3=O [US20250059196, Example 89] | 6.97
12 | O=C(Nc1cnc(-c2nccs2)c(C(F)(F)F)c1)c1cnn(-c2ccc3c4c(cccc24)C(=O)N3)c1C(F)(F)F [US20250059196, Example 33] | 7.34
13 | N#Cc1ccnn1-c1ncc(NC(=O)c2cnn(-c3ccc4c5c(cccc35)C(=O)N4)c2C(F)(F)F)cc1C(F)(F)F [US20250059196, Example 32] | 6.91
14 | O=C(Nc1ccc(-n2cccn2)c(C(F)(F)F)c1)c1cnn(-c2cnc3c4c(cccc24)C(=O)N3)c1C(F)(F)F [US20250059196, Example 74] | 6.71
15 | O=C(Nc1cnc(-n2ccnn2)c(C(F)(F)F)c1)c1cnn(-c2ccc3c4c(cccc24)C(=O)N3)c1C(F)(F)F [US20250059196, Example 36] | 7.28
16 | O=C(Nc1ccc(C(=O)N2CCCC2)c(C(F)(F)F)c1)c1cnn(-c2ccc3c4c(cccc24)C(=O)N3)c1C(F)(F)F [US20250059196, Example 52] | 6.98
17 | O=C(Nc1cnc(-n2cccn2)c(C(F)(F)F)c1)c1cnn(-c2cnc3c4c(cccc24)C(=O)N3)c1C(F)(F)F [US20250059196, Example 69] | 7.09
